Source: publication PMC5564600 (Oncotarget, 2017)
Like-named read-outs stand apart in the source and are kept apart here.

Experiments:
Assay in all cases: biochemical
Format in all cases: binding
panel of 442 kinases [1] = target: T1, panel of 442 kinases (Homo sapiens, UniProt P29597)
T1 construct: purchased Ambit Biosciences (scanMAXX KINOMEscan)

panel of 442 kinases [2] = target: T2, panel of 442 kinases (Homo sapiens, UniProt P78368); conditions: CSNK1G2; for remaining activity at 1 µM: read-out: % of control at 1 µM
T2 construct: purchased Ambit Biosciences (scanMAXX KINOMEscan)

panel of 442 kinases [3] = target: T3, panel of 442 kinases (Homo sapiens, UniProt Q6ZN16); conditions: kinase MAP3K15; for remaining activity at 1 µM: read-out: % of control at 1 µM
T3 construct: purchased Ambit Biosciences (scanMAXX KINOMEscan)
T3 sequence (Q6ZN16 1-1313): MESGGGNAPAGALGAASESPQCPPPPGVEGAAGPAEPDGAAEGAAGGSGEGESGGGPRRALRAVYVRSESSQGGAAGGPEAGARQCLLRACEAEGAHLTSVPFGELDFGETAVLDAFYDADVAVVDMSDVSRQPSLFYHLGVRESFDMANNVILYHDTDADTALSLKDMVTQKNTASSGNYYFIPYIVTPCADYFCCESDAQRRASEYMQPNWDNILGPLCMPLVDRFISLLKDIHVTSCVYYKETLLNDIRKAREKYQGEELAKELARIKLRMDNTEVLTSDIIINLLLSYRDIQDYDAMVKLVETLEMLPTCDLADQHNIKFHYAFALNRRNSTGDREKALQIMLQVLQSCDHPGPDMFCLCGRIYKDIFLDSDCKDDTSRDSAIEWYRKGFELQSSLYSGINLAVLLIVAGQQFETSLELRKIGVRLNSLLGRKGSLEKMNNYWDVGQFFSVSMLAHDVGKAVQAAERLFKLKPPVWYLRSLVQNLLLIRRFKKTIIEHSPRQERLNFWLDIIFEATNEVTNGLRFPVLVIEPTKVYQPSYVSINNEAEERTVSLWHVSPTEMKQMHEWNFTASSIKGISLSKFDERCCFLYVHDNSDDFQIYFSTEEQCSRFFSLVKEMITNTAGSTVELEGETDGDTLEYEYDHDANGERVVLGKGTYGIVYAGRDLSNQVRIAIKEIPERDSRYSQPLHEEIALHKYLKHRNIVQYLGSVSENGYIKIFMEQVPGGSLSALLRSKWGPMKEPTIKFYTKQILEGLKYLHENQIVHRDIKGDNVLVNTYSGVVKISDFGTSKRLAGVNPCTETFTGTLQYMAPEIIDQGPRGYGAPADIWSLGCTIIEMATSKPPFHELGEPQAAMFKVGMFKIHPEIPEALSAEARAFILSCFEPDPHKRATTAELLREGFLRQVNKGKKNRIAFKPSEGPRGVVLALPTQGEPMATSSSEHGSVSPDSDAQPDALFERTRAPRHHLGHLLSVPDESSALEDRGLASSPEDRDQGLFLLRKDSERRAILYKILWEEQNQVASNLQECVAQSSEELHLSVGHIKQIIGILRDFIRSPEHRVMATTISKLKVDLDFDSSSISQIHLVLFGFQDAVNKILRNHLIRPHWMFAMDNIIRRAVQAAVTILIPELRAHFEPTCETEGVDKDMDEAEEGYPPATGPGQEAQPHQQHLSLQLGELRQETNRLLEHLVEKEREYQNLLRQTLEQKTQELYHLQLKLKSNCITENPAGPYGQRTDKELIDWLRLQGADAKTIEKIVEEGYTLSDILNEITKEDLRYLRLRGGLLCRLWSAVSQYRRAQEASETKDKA

panel of 442 kinases [4] = target: T4, panel of 442 kinases (Homo sapiens, UniProt Q7L7X3); conditions: kinase TAOK1; for remaining activity at 1 µM: read-out: TAOK1 (% of control at 1 µM)
T4 construct: purchased Ambit Biosciences (scanMAXX KINOMEscan)
T4 sequence (Q7L7X3 1-1001): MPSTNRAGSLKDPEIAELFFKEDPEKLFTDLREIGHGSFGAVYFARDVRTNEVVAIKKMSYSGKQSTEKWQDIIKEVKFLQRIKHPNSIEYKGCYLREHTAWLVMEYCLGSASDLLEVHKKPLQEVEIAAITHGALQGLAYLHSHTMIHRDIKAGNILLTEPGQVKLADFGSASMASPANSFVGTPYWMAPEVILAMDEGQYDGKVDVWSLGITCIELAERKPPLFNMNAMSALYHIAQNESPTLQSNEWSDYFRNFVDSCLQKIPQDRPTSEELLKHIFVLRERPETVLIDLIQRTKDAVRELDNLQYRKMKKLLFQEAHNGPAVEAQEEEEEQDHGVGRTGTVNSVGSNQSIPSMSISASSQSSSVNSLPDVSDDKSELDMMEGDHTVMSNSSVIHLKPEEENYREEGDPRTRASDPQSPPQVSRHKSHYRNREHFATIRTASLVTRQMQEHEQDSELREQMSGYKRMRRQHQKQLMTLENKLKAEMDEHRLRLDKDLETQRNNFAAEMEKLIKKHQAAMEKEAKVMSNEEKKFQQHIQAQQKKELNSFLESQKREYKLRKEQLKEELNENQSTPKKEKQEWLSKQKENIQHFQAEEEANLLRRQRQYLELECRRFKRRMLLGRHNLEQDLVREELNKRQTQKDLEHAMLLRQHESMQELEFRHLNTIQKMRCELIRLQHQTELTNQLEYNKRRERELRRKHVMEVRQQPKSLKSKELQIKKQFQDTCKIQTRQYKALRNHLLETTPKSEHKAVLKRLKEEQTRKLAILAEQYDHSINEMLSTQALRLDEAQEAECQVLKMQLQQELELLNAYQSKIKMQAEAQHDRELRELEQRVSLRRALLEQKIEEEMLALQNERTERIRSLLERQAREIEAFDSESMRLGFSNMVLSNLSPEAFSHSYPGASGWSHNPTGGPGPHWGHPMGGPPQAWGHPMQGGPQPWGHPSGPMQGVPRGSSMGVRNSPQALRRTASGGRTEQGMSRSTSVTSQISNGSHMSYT

panel of 442 kinases [5] = target: T5, panel of 442 kinases (Homo sapiens, UniProt Q8N752); conditions: CSNK1A1L; for remaining activity at 1 µM: read-out: % of control at 1 µM
T5 construct: purchased Ambit Biosciences (scanMAXX KINOMEscan)
T5 sequence (Q8N752 1-337): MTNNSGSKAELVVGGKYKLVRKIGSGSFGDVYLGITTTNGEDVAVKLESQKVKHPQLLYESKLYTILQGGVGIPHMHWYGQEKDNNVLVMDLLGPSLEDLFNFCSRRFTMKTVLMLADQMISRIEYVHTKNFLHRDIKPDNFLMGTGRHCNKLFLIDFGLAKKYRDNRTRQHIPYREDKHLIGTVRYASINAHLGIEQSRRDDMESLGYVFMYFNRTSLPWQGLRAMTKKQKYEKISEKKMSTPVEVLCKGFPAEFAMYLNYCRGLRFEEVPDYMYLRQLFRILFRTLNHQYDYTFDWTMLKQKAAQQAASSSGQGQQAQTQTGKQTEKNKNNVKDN

[6] = kinase TYK2(JH1domain-catalytic), read-out: TYK2(JH1domain-catalytic) (% of control at 1 µM)
[7] = kinase TYK2(JH2domain-pseudokinase), read-out: TYK2(JH2domain-pseudokinase) (% of control at 1 µM)
[8] = 10 µM, read-out: % of control at 10 µM

T2 sequence (P78368 whole entry): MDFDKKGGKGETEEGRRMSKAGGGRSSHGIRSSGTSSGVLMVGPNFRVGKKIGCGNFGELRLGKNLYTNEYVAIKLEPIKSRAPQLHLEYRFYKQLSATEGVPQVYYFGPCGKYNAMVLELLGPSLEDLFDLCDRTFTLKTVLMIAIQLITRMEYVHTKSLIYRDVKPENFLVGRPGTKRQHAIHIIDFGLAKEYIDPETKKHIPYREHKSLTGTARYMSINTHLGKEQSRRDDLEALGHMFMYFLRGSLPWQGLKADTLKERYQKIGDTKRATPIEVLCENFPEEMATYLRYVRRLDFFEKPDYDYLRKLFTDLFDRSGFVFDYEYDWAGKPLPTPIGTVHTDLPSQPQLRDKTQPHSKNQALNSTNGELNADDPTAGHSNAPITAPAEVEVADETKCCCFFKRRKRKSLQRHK
T1 sequence (P29597 whole entry): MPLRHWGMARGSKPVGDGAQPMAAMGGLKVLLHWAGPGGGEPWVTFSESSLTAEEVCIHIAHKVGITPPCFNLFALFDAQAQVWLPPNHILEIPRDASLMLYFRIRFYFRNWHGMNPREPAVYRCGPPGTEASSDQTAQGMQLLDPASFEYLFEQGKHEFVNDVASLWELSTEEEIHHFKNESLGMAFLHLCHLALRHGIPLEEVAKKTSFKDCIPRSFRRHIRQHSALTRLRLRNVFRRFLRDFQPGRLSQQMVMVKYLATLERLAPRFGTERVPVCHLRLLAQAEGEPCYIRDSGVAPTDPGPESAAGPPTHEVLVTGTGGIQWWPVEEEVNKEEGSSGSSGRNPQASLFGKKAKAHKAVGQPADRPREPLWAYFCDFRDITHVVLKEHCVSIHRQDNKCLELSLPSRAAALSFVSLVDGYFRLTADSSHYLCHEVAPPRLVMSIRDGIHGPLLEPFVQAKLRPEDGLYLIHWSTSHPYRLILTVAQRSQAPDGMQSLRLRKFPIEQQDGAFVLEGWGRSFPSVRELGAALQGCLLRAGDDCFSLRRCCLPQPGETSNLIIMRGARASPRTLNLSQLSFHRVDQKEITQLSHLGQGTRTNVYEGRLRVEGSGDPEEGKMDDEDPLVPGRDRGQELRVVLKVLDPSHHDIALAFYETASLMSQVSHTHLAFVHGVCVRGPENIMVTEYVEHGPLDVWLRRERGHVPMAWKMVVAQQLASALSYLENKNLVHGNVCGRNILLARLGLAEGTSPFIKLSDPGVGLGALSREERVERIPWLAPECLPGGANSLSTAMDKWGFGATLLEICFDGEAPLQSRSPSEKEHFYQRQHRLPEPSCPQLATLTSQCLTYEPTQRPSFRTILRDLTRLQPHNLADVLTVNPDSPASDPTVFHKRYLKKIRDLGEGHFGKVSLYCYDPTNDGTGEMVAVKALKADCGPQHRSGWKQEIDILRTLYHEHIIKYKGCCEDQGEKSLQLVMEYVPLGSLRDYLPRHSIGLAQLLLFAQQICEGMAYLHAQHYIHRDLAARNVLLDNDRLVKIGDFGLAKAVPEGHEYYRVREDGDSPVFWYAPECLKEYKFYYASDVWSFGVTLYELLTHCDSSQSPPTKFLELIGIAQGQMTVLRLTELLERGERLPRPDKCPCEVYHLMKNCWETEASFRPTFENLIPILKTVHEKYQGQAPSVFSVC

Compound | remaining activity at 1 µM (panel of 442 kinases [1]; [6]) | remaining activity at 10 µM (panel of 442 kinases [1]; kinase TYK2(JH1domain-catalytic), read-out: TYK2(JH1domain-catalytic) (% of control at 10 µM)) | remaining activity at 1 µM (panel of 442 kinases [1]; [7]) | remaining activity at 10 µM (panel of 442 kinases [1]; kinase TYK2(JH2domain-pseudokinase), read-out: TYK2(JH2domain-pseudokinase) (% of control at 10 µM)) | remaining activity at 1 µM (panel of 442 kinases [2]) | remaining activity at 10 µM (panel of 442 kinases [2]; [8]) | remaining activity at 1 µM (panel of 442 kinases [3]) | remaining activity at 10 µM (panel of 442 kinases [3]; [8]) | remaining activity at 1 µM (panel of 442 kinases [4]) | remaining activity at 10 µM (panel of 442 kinases [4]; 10 µM, read-out: TAOK1 (% of control at 10 µM)) | remaining activity at 1 µM (panel of 442 kinases [5]) | remaining activity at 10 µM (panel of 442 kinases [5]; [8])
Nc1cc(C(F)(F)F)c(-c2cc(N3CCOCC3)nc(N3CCOCC3)n2)cn1 [Buparlisib] | 100% | 100% | 32% | 22% | 100% | 100% | 97% | 100% | 86% | 82% | 100% | 100%
Cn1c(=O)n(-c2ccc(C(C)(C)C#N)cc2)c2c3cc(-c4cnc5ccccc5c4)ccc3ncc21 [Dactolisib, 2-methyl-2-[4-(3-methyl-2-oxo-8-quinolin-3-yl-2,3-dihydroimidazo[4,5-c]quinolin-1-yl)-phenyl] propionitrile] | 26% |  | 65% |  | 80% |  | 100% |  | 70% |  | 100% | 
COc1ncc(-c2ccc3nccc(-c4ccnnc4)c3c2)cc1NS(=O)(=O)c1ccc(F)cc1F [Omipalisib] | 100% |  | 78% |  | 100% |  | 90% |  | 100% |  | 100% | 
FC(F)c1nc2ccccc2n1-c1nc(N2CCOCC2)nc(N2CCOCC2)n1 [ZSTK474, 2-(difluoromethyl)-1-[4,6-di(4-morpholinyl)-1,3,5-triazin-2-yl]-1H-benzimidazole] | 93% |  | 97% |  | 90% |  | 100% |  | 74% |  | 100% | 
